Experiments:
[1] = target: Delta-type opioid receptor (Rattus norvegicus, UniProt P33533); test: Binding affinity against Opioid receptor delta 1 using [3H]DT in rat brain synaptosomes was determined; format: subcellular
[2] = target: Mu-type opioid receptor (Cavia porcellus, UniProt P97266); test: In vitro biological activity by electrically induced smooth muscle contractions in guinea pig ileum (Opioid receptor mu 1); inhibitory concentration was evaluated; format: functional, tissue-based
[3] = target: Delta-type opioid receptor (Mus musculus, UniProt P32300); test: In vitro biological activity by electrically induced smooth muscle contractions in mouse vas deferens (Opioid receptor delta 1); inhibitory concentration was evaluated; format: functional
Chain of Delta-type opioid receptor (Mus musculus, UniProt P32300) (P32300 whole entry): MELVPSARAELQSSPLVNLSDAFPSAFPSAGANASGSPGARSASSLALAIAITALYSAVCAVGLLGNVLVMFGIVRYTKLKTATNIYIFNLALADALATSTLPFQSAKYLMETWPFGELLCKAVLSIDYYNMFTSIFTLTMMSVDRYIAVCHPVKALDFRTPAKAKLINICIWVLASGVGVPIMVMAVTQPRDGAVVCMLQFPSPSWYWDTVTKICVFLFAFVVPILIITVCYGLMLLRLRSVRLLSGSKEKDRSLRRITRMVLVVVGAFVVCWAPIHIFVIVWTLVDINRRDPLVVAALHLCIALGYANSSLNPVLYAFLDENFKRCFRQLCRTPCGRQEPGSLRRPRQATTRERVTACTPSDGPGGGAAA

[4] = target: Mu-type opioid receptor (Rattus norvegicus, UniProt P33535); test: Binding affinity against Opioid receptor mu 1 using [3H]DAMGO in rat brain synaptosomes was determined; format: subcellular
Chain of Mu-type opioid receptor (Rattus norvegicus, UniProt P33535) (P33535 whole entry): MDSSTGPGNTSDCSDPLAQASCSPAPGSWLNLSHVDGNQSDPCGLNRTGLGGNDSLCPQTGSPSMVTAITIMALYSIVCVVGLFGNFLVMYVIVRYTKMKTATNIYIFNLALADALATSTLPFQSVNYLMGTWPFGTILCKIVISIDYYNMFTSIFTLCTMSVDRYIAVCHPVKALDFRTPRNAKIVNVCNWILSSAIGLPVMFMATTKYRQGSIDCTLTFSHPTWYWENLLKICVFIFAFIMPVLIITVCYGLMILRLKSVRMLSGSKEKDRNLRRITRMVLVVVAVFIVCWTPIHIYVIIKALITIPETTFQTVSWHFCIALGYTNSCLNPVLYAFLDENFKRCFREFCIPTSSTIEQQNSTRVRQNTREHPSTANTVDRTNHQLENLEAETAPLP

[5] = Ratio of inhibitory concentration of guinea pig ileum to mouse vas deferens was determined; format: functional

Chain of Mu-type opioid receptor (Cavia porcellus, UniProt P97266) (P97266 whole entry): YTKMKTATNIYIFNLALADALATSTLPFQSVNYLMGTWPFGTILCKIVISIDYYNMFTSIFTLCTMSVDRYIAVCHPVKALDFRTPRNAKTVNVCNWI
Chain of Delta-type opioid receptor (Rattus norvegicus, UniProt P33533) (P33533 whole entry): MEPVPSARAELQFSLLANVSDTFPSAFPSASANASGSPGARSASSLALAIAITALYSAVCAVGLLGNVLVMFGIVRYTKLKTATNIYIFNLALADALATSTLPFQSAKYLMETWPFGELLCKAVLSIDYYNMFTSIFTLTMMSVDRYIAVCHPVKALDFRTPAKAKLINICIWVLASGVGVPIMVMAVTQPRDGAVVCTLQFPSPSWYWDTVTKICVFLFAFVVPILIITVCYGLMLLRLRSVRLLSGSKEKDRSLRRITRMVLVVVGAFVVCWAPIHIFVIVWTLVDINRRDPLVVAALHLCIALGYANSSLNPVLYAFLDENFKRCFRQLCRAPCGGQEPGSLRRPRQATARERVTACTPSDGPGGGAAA

| SMILES | Ki [1] [nM] | IC50 [2] [nM] | IC50 [3] [nM] | Ki [4] [nM] | Ratio [5] |
| --- | --- | --- | --- | --- | --- |
| Cc1cccc(C)c1C[C@@H](NC(=O)[C@@H](C)NC(=O)[C@@H](N)Cc1ccc(O)cc1)C(=O)NCC(=O)N[C@@H](Cc1ccc(O)cc1)C(=O)N1CCC[C@H]1C(=O)N[C@@H](CO)C(N)=O | 3300 | 44.4 |  |  |  |
| Cc1cccc(C)c1C[C@@H](NC(=O)[C@@H](C)NC(=O)[C@@H](N)Cc1ccc(O)cc1)C(=O)N[C@@H](CCC(=O)O)C(=O)N[C@H](C(=O)N[C@H](C(=O)NCC(N)=O)C(C)C)C(C)C | 111 | 8210 | 145 | 1960 | 56 |
| Cc1cccc(C)c1C[C@H](NC(=O)[C@H](C)NC(=O)[C@@H](N)Cc1ccc(O)cc1)C(=O)N[C@@H](CCC(=O)O)C(=O)N[C@H](C(=O)N[C@H](C(=O)NCC(N)=O)C(C)C)C(C)C | 0.00105 | 6700 | 0.022 | 1100 | 304772 |
| Cc1cccc(C)c1C[C@H](NC(=O)[C@H](C)NC(=O)[C@@H](N)Cc1ccc(O)cc1)C(=O)NCC(=O)N[C@@H](Cc1ccc(O)cc1)C(=O)N1CCC[C@H]1C(=O)N[C@@H](CO)C(N)=O | 45.7 | 1.21 |  |  |  |
| CC(C)[C@H](NC(=O)[C@H](CC(=O)O)NC(=O)[C@H](Cc1ccccc1)NC(=O)[C@@H](C)NC(=O)[C@@H](N)Cc1ccc(O)cc1)C(=O)N[C@H](C(=O)NCC(N)=O)C(C)C [DELTORPHIN C] | 0.0026 | 5440 |  | 314 |  |
| C[C@@H](NC(=O)[C@@H](N)Cc1ccc(O)cc1)C(=O)N[C@@H](Cc1ccccc1)C(=O)NCC(=O)N[C@@H](Cc1ccc(O)cc1)C(=O)N1CCC[C@H]1C(=O)N[C@@H](CO)C(N)=O [DERMORPHIN] |  | 3.74 |  | 0.092 |  |
